Values of other authors, collected in patent US12514906B2, “Use of C-type natriuretic peptide variants to treat skeletal dysplasia” (BIOMARIN PHARMACEUTICAL INC., priority 2015, dated 2026).
Where no end group is shown, it is not given here.

Key:
NPR-B = settings: CNP-53 compared with CNP-22
cGMP production = settings: CNP-53 compared with CNP-22

| Substance | binding to NPR-B (NPR-B) | induction of cGMP production (cGMP production) | plasma half-life (in vivo in humans) | in vivo half-life (normal human) |
| --- | --- | --- | --- | --- |
| CNP-53: active 53-amino acid peptide generated from pro-CNP by furin cleavage (DLRVDTKSRAAWARLLQEHPNARKYKGANKKGLSKGCFGLKLDRIGSMSGLGC; ends and bridges not checked; cysteine pairing not given here; UniProt P23582 74-126, looked up) | bind similarly | dose-dependent and similar fashion |  |  |
| CNP: mature 22-amino acid wild type C-type natriuretic peptide | bind similarly | dose-dependent and similar fashion | 2.6 min | 2.6 min |
